According to patent US10300061B2, “Aminothiazole compounds as protein kinase inhibitors” (priority 2017, dated 2019):
Counter-ions that a name gives are not always drawn.

What was measured:
GIST882 = GIST882 cell proliferation assay; type: cell-based; conditions: Homo sapiens, 144 hours
Experimental: (§1) GIST882, GIST48 and GIST430 cells were all cultured in incubators maintained at 37° C. and 5% CO2. GIST882 was cultured in RPMI-1640 supplemented with 20% fetal bovine serum (FBS). GIST48 was cultured with F10 supplemented with 20% FBS, 0.5% Mito, serum extender (BD Bioscience, 355006) and 1% pituitary extract bovine (BD Bioscience 354123). GIST430 was cultured in IMDM supplemented with 20% FBS. GIST882, GIST430 and GIST48 cells were provided by Dr. Jonathan A. Fletcher (Harvard Medical School, US).
(§2) GIST cells (4×10^4) were treated with different dosage of compounds. The treated GIST882 cells were incubated for 144 hours and GIST48 and GIST430 cells were incubated for 120 hours at 37° C. in 5% CO2. Cell proliferation was determined by incubating the cells with […] (Clontech, Calif., US) for 1 hour. The absorbance was measured at 450 nm using SpectraMax M5 microplate reader (Molecular Devices, US).

MOLM-13 = MOLM-13 MTS cell viability assay; type: cell-based; conditions: Homo sapiens, leukemia cell line, 72 hours
Experimental: (§3) A study was carried out as follows to evaluate in vitro anticancer activity of certain compounds prepared according to EXAMPLE 1 using cell lines and MTS cell viability assays (MTS represents 3-(4,5-dimethylthiazol-2-yl)-5-(3-carboxymethoxyphenyl)-2-(4-sulfophenyl)-2H-tetrazolium).
(§4) Leukemia cell lines MOLM-13, MV4:11, and Kasumin-1 were purchased from American Type Culture Collection (ATCC, Manassas, Va., USA). The human gastrointestinal stromal tumor GIST-T1 cell line was purchased from Cosmo Bio Co., LTD (Tokyo, Japan). All leukemia cell lines were maintained in RPMI 1640 medium supplemented with 10% fetal bovine serum (FBS), 10 U/ml penicillin, and 10 µg/ml streptomycin at 37° C. and 5% CO2. The cell line GIST-T1 was cultured in DMEM medium supplemented with 10% FBS, 0.01% nonessential amino acids, 10 U/ml penicillin, and 10 µg/ml streptomycin.
(§5) Cells were seeded in 96-well culture plates at a density of 1×10^4 cells/100 μl/well in triplicates and were treated for 72 hours with an indicated concentration of test compound ranging from 1 nM to 10 μM. Colorimetric CellTiter 96® Aqueous One Solution Cell Proliferation assay (MTS assay; Promega, Madison, Wis., USA) was used to determine the cytotoxicity. The optical density at 492 nm was measured using a microplate photometer (Victor2; Perkin-Elmer, Waltham, Mass., USA). IC50 values were determined by MTS assay when cells were treated with test compound for 72 hours and calculated with GraphPad Prism 6. Each experiment was in triplicate.

VEGFR2 = target: T1, VEGFR2 (Homo sapiens, UniProt P35968); assay: VEGFR2 Kinase-Glo kinase assay; type: biochemical; conditions: GST-VEGFR2, 1 μM ATP, 30° C. 120 minutes
T1 construct: The recombinant GST-VEGFR2 (residues V789-V1356) containing kinase domain; GST; made in house; host or cells: Sf9 insect cells
Experimental: The recombinant GST-VEGFR2 (residues V789-V1356) containing kinase domain was expressed in Sf9 insect cells. The kinase assay was carried out in 96-well plates with tested compound in a final volume of 50 μl reaction at 30° C. for 120 minutes with following components: 25 mM HEPES pH 7.4, 10 mM MgCl2, 4 mM MnCl2, 0.5 mM Na3VO4, 2 mM DTT, 0.02% Triton X100, 0.01% BSA, 1 μM ATP, 2 μM polyGlu4:Tyr peptide, 50˜100 ng recombinant VEGFR2. Following incubation, 50 μl Kinase-Glo Plus Reagent (Promega, Madison, Wis., USA) was added to each well and the mixture was incubated at 25° C. for 20 min. A 70-μL aliquot of each reaction mixture was transferred to a black microtiter plate and the luminescence was measured on Wallac Vector 1420 multilabel counter (PerkinElmer, Shelton, Conn., USA).

MV4:11 = MV4:11 MTS cell viability assay; type: cell-based; conditions: Homo sapiens, leukemia cell line, 72 hours
Experimental: as §3, §4, §5

Kasumi-1 = Kasumi-1 MTS cell viability assay; type: cell-based; conditions: Homo sapiens, leukemia cell line, 72 hours
Experimental: as §3, §4, §5

GIST48 = GIST48 cell proliferation assay; type: cell-based; conditions: Homo sapiens, 120 hours
Experimental: as §1, §2

GIST-T1 = GIST-T1 MTS assay; type: cell-based; conditions: Homo sapiens, GISTT1; gastrointestinal stromal tumor cell line, 72 hours
Experimental: as §3, §4
as §5, with “GIST-T1 cells” for “Cells”, “8000” for “1×10^4”

GIST430 = GIST430 cell proliferation assay; type: cell-based; conditions: Homo sapiens, 120 hours
Experimental: as §1, §2

T1 sequence (P35968 789-1356): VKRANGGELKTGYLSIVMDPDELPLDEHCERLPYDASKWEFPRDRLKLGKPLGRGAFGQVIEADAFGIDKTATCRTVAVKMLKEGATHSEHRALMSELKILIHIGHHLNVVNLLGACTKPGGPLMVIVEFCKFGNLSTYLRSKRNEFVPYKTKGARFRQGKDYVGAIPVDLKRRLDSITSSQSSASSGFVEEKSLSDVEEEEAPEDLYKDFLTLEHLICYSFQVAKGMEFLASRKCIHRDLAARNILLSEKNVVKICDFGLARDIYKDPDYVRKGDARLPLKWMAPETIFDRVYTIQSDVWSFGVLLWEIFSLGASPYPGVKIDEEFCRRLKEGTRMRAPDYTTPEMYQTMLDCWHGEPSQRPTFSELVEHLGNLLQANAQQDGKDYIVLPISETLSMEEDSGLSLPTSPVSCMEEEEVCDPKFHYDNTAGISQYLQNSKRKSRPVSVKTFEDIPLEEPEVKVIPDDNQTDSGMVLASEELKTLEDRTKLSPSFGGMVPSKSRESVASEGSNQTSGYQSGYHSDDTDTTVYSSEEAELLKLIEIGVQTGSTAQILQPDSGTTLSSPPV

| IC50 (VEGFR2) [nM] | SMILES | GI50 (GIST882) [nM] | GI50 (MOLM-13) [nM] | GI50 (MV4:11) [nM] | GI50 (Kasumi-1) [nM] | GI50 (GIST48) [nM] | GI50 (GIST-T1) [nM] | GI50 (GIST430) [nM] |
| --- | --- | --- | --- | --- | --- | --- | --- | --- |
| – | CCN1CCN(c2cc(Nc3ncc(-c4cncnc4)s3)nc(C)n2)CC1 [Compound 12, [6-(4-Ethyl-piperazin-1-yl)-2-methyl-pyrimidin-4-yl]-(5-pyrimidin-5-yl-thiazol-2-yl)-amine hydrochloride salt] | – | 211 | 132 | 349 | – | 119 | – |
| < 30 | Cc1nc(Nc2ncc(-c3cccnc3)s2)cc(N2CCC(N(C)C)CC2)n1 [Compound 10, [6-(4-Dimethylamino-piperidin-1-yl)-2-methyl-pyrimidin-4-yl]-(5-pyridin-3-yl-thiazol-2-yl)-amine hydrochloride salt] | – | – | – | – | – | – | – |
| < 30 | Cc1nc(Nc2ncc(-c3cccnc3)s2)cc(N2CCN(CCO)CC2)n1 [Compound 9, 2-{4-[2-Methyl-6-(5-pyridin-3-yl-thiazol-2-ylamino)-pyrimidin-4-yl]-piperazin-1-yl}-ethanol hydrochloride salt] | – | – | – | – | – | – | – |
| – | CCN1CCN(c2cc(Nc3ncc(-c4cccnc4)s3)nc(C)n2)CC1 [Compound 7, [6-(4-Ethyl-piperazin-1-yl)-2-methyl-pyrimidin-4-yl]-(5-pyridin-3-yl-thiazol-2-yl)-amine hydrochloride salt] | 20 | 62 | 34 | 266 | 820 | 53 | 60 |

| SMILES | IC50 (VEGFR2) [nM] | GI50 (GIST882) [nM] | GI50 (MOLM-13) [nM] | GI50 (MV4:11) [nM] | GI50 (Kasumi-1) [nM] | GI50 (GIST48) [nM] | GI50 (GIST-T1) [nM] | GI50 (GIST430) [nM] |
| --- | --- | --- | --- | --- | --- | --- | --- | --- |
| CCN1CCN(c2cc(Nc3ncc(-c4ccncc4)s3)nc(C)n2)CC1 [Compound 1, [6-(4-Ethyl-piperazin-1-yl)-2-methyl-pyrimidin-4-yl]-(5-pyridin-4-yl-thiazol-2-yl)-amine hydrochloride salt] | < 30 | 5 | 10 | 13 | 11 | 19 | 11 | 3.8 |
